Source: patent US11981658B2, “Substituted aminopyridine compounds as EGFR inhibitors” (YUHAN CORPORATION, priority 2021, dated 2024)
Like-named read-outs stand apart in the source and are kept apart here.

Columns and labels:
EGFR Del19/T790M/C797S = EGFR Del19/T790M/C797S (Homo sapiens, UniProt P00533, C797S/DEL746-750/T790M); assay: Biochemical EGFR kinase inhibition assay (Lance Ultra TR-FRET), triple mutant del19/T790M/C797S
Summary of the method: (§1)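 In this biochemical assay, phosphorylation after a one-hour room-temperature reaction was detected with europium-labelled anti-phosphopeptide antibody at 2 nM final concentration.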

EGFR L858R/T790M/C797S = EGFR L858R/T790M/C797S (Homo sapiens, UniProt P00533, C797S/L858R/T790M); assay: Biochemical EGFR kinase inhibition assay (Lance Ultra TR-FRET), triple mutant L858R/T790M/C797S
Summary of the method: as §1

EGFR Del19/C797S = EGFR Del19/C797S (Homo sapiens, UniProt P00533, C797S/DEL746-750); assay: Biochemical EGFR kinase inhibition assay (Lance Ultra TR-FRET), double mutant del19/C797S
Summary of the method: as §1

EGFR L858R/C797S = EGFR L858R/C797S (Homo sapiens, UniProt P00533, C797S/L858R); assay: Biochemical EGFR kinase inhibition assay (Lance Ultra TR-FRET), double mutant L858R/C797S
Summary of the method: as §1

EGFR wildtype (WT) = EGFR wildtype (WT) (Homo sapiens, UniProt P00533); assay: Biochemical EGFR kinase inhibition assay (Lance Ultra TR-FRET), wildtype
Summary of the method: as §1

[1] = ATP at Km, read-out: IC50 Del19/T790M/C797S (nM), Km ATP
[2] = IC50 Del19/T790M/C797S (nM), 100 μM ATP
[3] = IC50 L858R/T790M/C797S (nM), 100 μM ATP
[4] = ATP at Km, read-out: IC50 Del19/C797S (nM), Km ATP
[5] = IC50 Del19/C797S (nM), 100 μM ATP
[6] = ATP at Km, read-out: IC50 L858R/C797S (nM), Km ATP
[7] = IC50 L858R/C797S (nM), 100 μM ATP
[8] = ATP at Km, read-out: IC50 WT (nM), Km ATP
[9] = Km ATP, read-out: IC50 Del19/T790M/C797S (nM), Km ATP
[10] = Km ATP, read-out: IC50 L858R/T790M/C797S (nM), Km ATP
[11] = Km ATP, read-out: IC50 Del19/C797S (nM), Km ATP
[12] = Km ATP, read-out: IC50 L858R/C797S (nM), Km ATP
[13] = Km ATP, read-out: IC50 WT (nM), Km ATP

Compound	IC50 (EGFR Del19/T790M/C797S; [2])	IC50 (EGFR L858R/T790M/C797S; ATP at Km, read-out: IC50 L858R/T790M/C797S (nM), Km ATP)	IC50 (EGFR L858R/T790M/C797S; [3])	IC50 (EGFR Del19/C797S; [5])	IC50 (EGFR L858R/C797S; [7])	IC50 (EGFR wildtype (WT); IC50 WT (nM), 100 μM ATP)	IC50 (EGFR Del19/T790M/C797S; [9])	IC50 (EGFR L858R/T790M/C797S; [10])	IC50 (EGFR Del19/C797S; [11])	IC50 (EGFR L858R/C797S; [12])	IC50 (EGFR wildtype (WT); [13])	IC50 (EGFR Del19/T790M/C797S; [1])	IC50 (EGFR Del19/C797S; [4])	IC50 (EGFR L858R/C797S; [6])	IC50 (EGFR wildtype (WT); [8])	IC50 (EGFR Del19/T790M/C797S; read-out: IC50 Del19/T790M/C797S (nM), 100 μM ATP)	IC50 (EGFR L858R/T790M/C797S; read-out: IC50 L858R/T790M/C797S (nM), 100 μM ATP)	IC50 (EGFR Del19/C797S; read-out: IC50 Del19/C797S (nM), 100 μM ATP)	IC50 (EGFR L858R/C797S; read-out: IC50 L858R/C797S (nM), 100 μM ATP)	IC50 (EGFR wildtype (WT); read-out: IC50 WT (nM), 100 μM ATP)
CN1CCC2(CC1)CCN(c1cc(Nc3ccnc(-c4cnn(S(=O)(=O)C5CC5)c4)n3)ncc1C#Cc1cnn(CC(F)F)c1)CC2 [Example 322, 2-(1-(Cyclopropylsulfonyl)-1H-pyrazol-4-yl)-N-(5-((1-(2,2-difluoroethyl)-1H-pyrazol-4-yl)ethynyl)-4-(9-methyl-3,9-diazaspiro[5.5]undecan-3-yl)pyridin-2-yl)pyrimidin-4-amine]	0.5 nM		0.4 nM	6 nM	18 nM	4540 nM														
CN(C)CCC1CCN(c2cc(Nc3ccnc(-c4cnn(S(=O)(=O)C5CC5)c4)n3)ncc2C#CC2(C)CC2)CC1 [Example 407, 2-(1-(Cyclopropylsulfonyl)-1H-pyrazol-4-yl)-N-(4-(4-(2-(dimethylamino)ethyl)piperidin-1-yl)-5-((1-methylcyclopropyl)ethynyl)pyridin-2-yl)pyrimidin-4-amine]	0.3 nM		0.4 nM	0.7 nM	13 nM	1260 nM			0.6 nM	0.8 nM	4.4 nM									
(1-(2-((2-(1-(Cyclopropylsulfonyl)-1H-pyrazol-4-yl)pyrimidin-4-yl)amino)-5-((5-((3,3-difluoroazetidin-1-yl)methyl)-1-(2,2-difluoroethyl)-1H-pyrrol-3-yl)ethynyl)pyridin-4-yl)-4-methylpiperidin-4-yl)methanol [Example 248]												8.3 nM	9.9 nM	16.6 nM	30.1 nM	13.8 nM	11.4 nM	8.6 nM	39.4 nM	6600 nM

Continued by falling IC50 (EGFR Del19/T790M/C797S; [2]), values first:

IC50 (EGFR Del19/T790M/C797S; [2])	IC50 (EGFR L858R/T790M/C797S; ATP at Km, read-out: IC50 L858R/T790M/C797S (nM), Km ATP)	IC50 (EGFR L858R/T790M/C797S; [3])	IC50 (EGFR Del19/C797S; [5])	IC50 (EGFR L858R/C797S; [7])	IC50 (EGFR wildtype (WT); IC50 WT (nM), 100 μM ATP)	IC50 (EGFR Del19/T790M/C797S; [9])	IC50 (EGFR L858R/T790M/C797S; [10])	IC50 (EGFR Del19/C797S; [11])	IC50 (EGFR L858R/C797S; [12])	IC50 (EGFR wildtype (WT); [13])	Compound	IC50 (EGFR Del19/T790M/C797S; [1])	IC50 (EGFR Del19/C797S; [4])	IC50 (EGFR L858R/C797S; [6])	IC50 (EGFR wildtype (WT); [8])	IC50 (EGFR Del19/T790M/C797S; read-out: IC50 Del19/T790M/C797S (nM), 100 μM ATP)	IC50 (EGFR L858R/T790M/C797S; read-out: IC50 L858R/T790M/C797S (nM), 100 μM ATP)	IC50 (EGFR Del19/C797S; read-out: IC50 Del19/C797S (nM), 100 μM ATP)	IC50 (EGFR L858R/C797S; read-out: IC50 L858R/C797S (nM), 100 μM ATP)	IC50 (EGFR wildtype (WT); read-out: IC50 WT (nM), 100 μM ATP)
3.3 nM	3.1 nM	4.4 nM	7.1 nM	81.2 nM	> 10000 nM						CC1(CO)CCN(c2cc(Nc3ccnc(-c4cnn(S(=O)(=O)C5CC5)c4)n3)ncc2C#Cc2ccc(CN3CCOCC3)cc2)CC1 [Example 253, (1-(2-((2-(1-(Cyclopropylsulfonyl)-1H-pyrazol-4-yl)pyrimidin-4-yl)amino)-5-((4-(morpholinomethyl)phenyl)ethynyl)pyridin-4-yl)-4-methylpiperidin-4-yl)methanol]	5.3 nM	4.2 nM	9.8 nM	23.9 nM					
3.1 nM		7.9 nM	75.5 nM	1290 nM	> 10000 nM	2.9 nM	3.4 nM	33.3 nM	37.9 nM	226 nM	O=S(=O)(C1CC1)n1cc(-c2nccc(Nc3cc(NC[C@H]4CC[C@H](CO)CC4)c(C#Cc4cnn(CCF)c4)cn3)n2)cn1 [Example 381, ((1 r,4r)-4-(((2-((2-(1-(Cyclopropylsulfonyl)-1H-pyrazol-4-yl)pyrimidin-4-yl)amino)-5-((1-(2-fluoroethyl)-1H-pyrazol-4-yl)ethynyl)pyridin-4-yl)amino)methyl)cyclohexyl)methanol]									
0.9 nM		0.4 nM	2 nM	104 nM	> 10000 nM	0.5 nM	0.1 nM				O=C(c1ccc(C#Cc2cnc(Nc3ccnc(-c4cnn(S(=O)(=O)C5CC5)c4)n3)cc2N2CCC[C@H](O)C2)cc1)N1CCC(O)CC1 [Example 445, (S)-(4-((6-((2-(1-(Cyclopropylsulfonyl)-1H-pyrazol-4-yl)pyrimidin-4-yl)amino)-4-(3-hydroxypiperidin-1-yl)pyridin-3-yl)ethynyl)phenyl)(4-hydroxypiperidin-1-yl)methanone]									
